Earlier results as cited in US10195257B2 (Qantu Therapeutics, Inc., priority 2013, dated 2019).

Key:
T cells = conditions: in vivo
Aβ = conditions: without any adjuvant, administered intra-nasally
OVA-specific CTLs = conditions: mice immunized with OVA plus adjuvant

## O=Cc1c(O)cccc1OCc1ccc(C(=O)O)cc1 [tucaresol, 4-(2-formyl-3-hydroxyphenoxymethylbenzoic acid)]
T cells
  type of immunity favored: favors a Th1-biased immunity with a Th1-type cytokine profile and concomitant CTL production

## Aβ40: main Aβ peptide that contains amino acid residues from 1 to 40
Aβ
  immune response and Aβ plaques: Th2 immune response and reduced levels of Aβ plaques

## QS-21
OVA-specific CTLs
  immune response type and CTL production: Th1 immune response with the concomitant production of OVA-specific CTLs
